Results from patent US9624167B2, “N-(4-hydroxy-4-methyl-cyclohexyl)-4-phenyl-benzenesulfonamides and N-(4-hydroxy-4-methyl-cyclohexyl)-4-(2-pyridyl)benzenesulfonamides and their therapeutic use” (PIMCO 2664 LIMITED, priority 2013, dated 2017).
pIC50: −log10 of the molar value. In brackets after ≈: the same amount, converted by molar mass. Read-outs that look alike come from different tables or passages of the source.

Tests used:
J774 macrophages [1] = assay: Resazurin Macrophage J774 Viability Assay; assay type: cell-based; settings: Mus musculus, 12 point concentration range 10 μM to 0.5 nM, n = 4 replicates, mean of 3 independent experiments, 72 hour incubation, read-out: IC50 (2)
[2] = test system: IL-6 release from LPS-stimulated Thp1 macrophages; assay: Thp1 Macrophage IL-6 Release Assay; assay type: cell-based; settings: Homo sapiens, THP-1, 1.7 × 10^5 cells/well, 96-well plates, 3 days, 9 point curve, IL6 measured 18 hours after LPS, read-out: IC50 (2)
Excerpt: Anti-inflammatory effects were further characterised by assessing the production of interleukin-6 (IL-6) by human Thp-1 derived macrophages stimulated with a pro-inflammatory stimulus bacterial lipopolysaccharide (LPS). LPS acts with a cell-surface receptor, Toll-like receptor-4 to activate the NFκB and IRF signalling pathways to produce IL-6. The reduction of IL—in this stimulated assay is indicative of anti-inflammatory effects with utility in the treatment of conditions in which IL-6 production is aberrant.
In vitro potency of test compounds in human cells was determined by incubation with Thp1 macrophages and subsequent stimulation with an inflammatory stimulus (bacterial lipopolysaccharide (LPS)) followed by measurement of cellular interleukin-6 (IL-6) release.
Thp1 cells were plated at a concentration of 1×10^5 cells/well or 1.7×10^5 cells/well in 500 μL or 150 μL RPMI complete media containing 1% penicillin-streptomycin and 10% heat inactivated foetal bovine serum in 24-well plates or 96-well plates, respectively and allowed to adhere overnight. The following day, the cells were stimulated with phorbol myristic acid (PMA) at a final concentration of 100 nM (24-well plates) or 200 nM (96-well plates) to induce differentiation and maintained for up to 8 days with a medium change at 5 days if cells were cultured to 8 days. Test compounds were prepared as […] solutions in DMSO and then serially diluted in DMSO prior to dilution in culture medium.
The diluted compounds were added to the cultures 1 hour prior to stimulation with 100 ng/mL LPS. Following a 16 or 18 hour incubation at 37° C./5% CO2, the cell culture medium was collected and assayed for human IL-6 levels using the human IL-6 duo-set ELISA kit (R&D Systems). The average results for each test compound (n=3) were expressed as a percent (%) of the average control value. The average values across the concentrations tested were then plotted and the IC50 for the inhibition of IL-6 was calculated by fitting the data to a 4-parameter IC50 equation using software from Grafit version 6.0.12 (Erithacus Software Ltd., by Dr Robin Leatherbarrow) or GraphPad Prism version 5.04 for Windows (GraphPad Software, La Jolla, Calif., USA, www.qraphpad.com). Each experiment was repeated twice and the data are presented as the mean IC50 from both experiments.

[3] = Aqueous (FaSSIF) solubility; assay type: physicochemical; settings: fasted state simulated intestinal fluid (FaSSIF); for solubility: pH 6.8, two replicates, read-out: Solubility (2)
Description: Solubility was measured by equilibration of the compound in fasted state simulated intestinal fluid (FaSSIF) and quantified by high-performance liquid chromatography (HPLC).
Aqueous solubility was measured by equilibration of compounds with fasted state simulated intestinal fluid (FaSSIF) and quantified spectrophotometrically.
FaSSIF was prepared as described below:
Preparation of blank FaSSIF: 0.21 g of sodium hydroxide (NaOH) pellets, 1.97 g of dihydrogen sodium phosphate (NaH2PO4.2H2O) and 3.09 g of sodium chloride (NaCl) were dissolved in 400 mL of deionised water. […]
Preparation of FaSSIF: 0.056 g of SIF Powder (containing sodium taurocholate and lecithin) (Phares AG) was dissolved in 25 mL of blank FaSSIF and stirred until the powder was completely dissolved. The solution was allowed to stand for 2 hours during which it became opalescent; it was used within 24 hours. The final solution composition was characterised as follows: • Sodium taurocholate: 3 mM • Lecithin: 0.75 mM • Osmolarity: 270±10 mOsmol • pH: 6.5
The optical density was measured at the end of the incubation period for test compounds and a reference used to determine solubility. In brief, two samples were prepared for each determination: a reference sample consisting of a stock solution of test compound in DMSO diluted in system solution (a phosphate free, low absorption buffer) and propanol; and a test sample (prepared in triplicate) consisting of 0.5 mL FaSSIF spiked with test compound at 0.2 mM. Each sample was incubated at room temperature for 16 hours with constant shaking at 250 rpm. At the end of the incubation period, 0.3 mL of each sample was filtered through a pION filter plate (PION, Woburn Mass.), diluted 1:1 with propanol and scanned using UV spectrophotometry at λmax ([…]) using a Spectra Max Plus—Version 2.1000 (Molecular Devices, Sunnyvale, Calif.), with μSOL Explorer solubility determination software (pION, Woburn, Mass.).
FaSSIF solubility was calculated using the following formula:
[formula] wherein: • “OD” is the optical density; • “Cr” is the concentration of the reference (33.4 μM); and • “molecular weight” is for the test compound (e.g., 381.44 for ABD735).

[4] = Human Liver Microsomal Stability; assay type: in vitro ADME; settings: both sexes, pooled liver microsomes, pH 7.4, human liver microsomes 0.5 mg/mL protein, 1 μM compound, 6 time points 0-60 min, two replicates, read-out: T1/2 (2)
Description: Metabolic stability was measured by determining the rate of disappearance of compound in the presence of human liver microsomal preparations, as quantified by liquid chromatography mass-spectrometry and […] mass-spectrometry (LC-MS/MS).
Metabolic stability of test compounds was measured by determination of the rate of disappearance of the compound when incubated in the presence of human liver microsomes. Liver microsomes are prepared from the endoplasmic reticulum of hepatocytes and are the primary source of the most important enzymes (cytochrome P450s) involved in drug metabolism. Study of drug stability in the presence of liver microsomes is accepted as a valuable model permitting rapid prediction of in vivo drug stability.
Human liver microsomes were obtained from a commercial source. Test compounds (1 μM) were incubated with pooled liver microsomes (male and female). Samples were incubated for a 60 minute period and removed at up to 6 time points and analysed by LC-MS/MS for the presence/amount of test compounds.
Microsomes (final protein concentration 0.25 or 0.5 mg/mL), 0.1 M phosphate buffer pH 7.4, and test compound (final concentration 1 μM; diluted from 10 mM stock solution to give a final DMSO concentration of 0.1%) were incubated at 37° C. prior to the addition of Nicotinamide adenine dinucleotide phosphate (NADPH, final concentration 1 mM) to initiate the reaction. The final incubation volume was 100 μL. A control incubation was included for each compound tested, where 0.1 M phosphate buffer pH 7.4 was added instead of NADPH. […]
Each compound was incubated for 0, 5, 15, 30, 45 or 60 minutes. The reactions were stopped by the addition of 100 μL ice-cold acetonitrile containing internal standard (0.001 mM glipizide) at the appropriate time points. The incubation plates were centrifuged at 4000 rpm for 15 minutes at 4° C. to precipitate the protein and 0.1 mL aliquots were analysed using LC-MS/MS, with the conditions shown in the following table.
From a plot of the natural logarithm of the peak area ratio (i.e., the ratio of compound peak area:internal standard peak area) against time, the gradient of the line was determined.

hERG = molecular target: T1, hERG (Homo sapiens, UniProt Q12809); assay: hERG Ion Channel Assay (Q-patch, hERG-CHO cells); assay type: cell-based; settings: human, CHO cells stably transfected with hERG (hERG-CHO), pH 7.4, 30 μM, hERG tail current
T1 construct: expressed in transfected cells; host or cells: Chinese Hamster Ovary cells (hERG-CHO), stably transfected
Description: (§1) The activity of the compounds against the hERG ion channel was tested. The assay was conducted using the automated path-clamp, Q-patch method using stably transfected Chinese Hamster Ovary cells (hERG-CHO). hERG-CHO cells were cultured in F-12 Kaighn's Nutrient Mixture medium (Invitrogen)+10% FBS at 37° C. for 1-3 days. Cells were kept at 30° C. for 24 to 48 hours prior to patch clamping in order to increase the hERG current amplitude. Subsequently, the cells were harvested by trypsinisation, and kept in Serum Free Medium (SFM) in the Q-patch cell preparation state for up to 6 hours at room temperature before being washed and re-suspended in extracellular solution and applied to the patch clamp sites for data recording.
(§2) Patch-clamp voltage protocol: After whole cell configuration was achieved, the cell was held at −80 mV. A 50 millisecond pulse to −40 mV was delivered to measure the leaking current, which was subtracted from the tail current on-line. Then the cell was depolarized to +20 mV for 2 seconds, followed by a one second pulse to −40 mV to reveal hERG tail current. This paradigm was delivered once every 5 seconds to monitor the current amplitude.
(§3) Extracellular solution: 137 mM NaCl, 4 mM KCl, 1.8 mM CaCl2, 1 mM MgCl2, 10 mM D(+)-glucose, 10 mM HePES buffer (pH adjusted to 7.4 with NaOH).
(§4) After the whole cell configuration was achieved, the extracellular solution (control) was applied first and the cell was stabilized for 2 minutes in extracellular solution. The test compound was then applied from low concentrations to high concentrations cumulatively. The cell was incubated with each test concentration for 5 minutes. During each incubation, the cell was repetitively stimulated using the voltage protocol described above, and the tail current amplitude was continuously monitored.
(§5) • (1) Peak tail current >100 pA in control. • (2) Initial run-down <30% and the run-down stops before first application of the test compound. • (3) Leak currents <50% of the control peak tail currents at any time. • (4) rs<20 MΩ throughout the experiment.
(§6) The degree of inhibition (%) was obtained by measuring the tail current amplitude, induced by a one second test pulse to −40 mV after a two second pulse to +20 mV, before and after incubation with the test compound. The difference in current was normalized to control and multiplied by 100 in order to obtain the percent inhibition.
(§7) Concentration (log) response curves were fitted to a logistic equation (three parameters assuming complete block of the current at very high test compound concentrations) to generate estimates of the 50% inhibitory concentration (IC50). The concentration-response relationship of each compound was constructed from the percentage reductions of current amplitude by sequential concentrations.

hERG ion channel = molecular target: T2, hERG ion channel (Homo sapiens, UniProt Q12809); assay: hERG Ion Channel Assay (Q-patch, hERG-CHO cells); assay type: cell-based; settings: hERG tail current, hERG-CHO cells, Q-patch; read-out: IC50 (1)
T2 construct: expressed in transfected cells; host or cells: Chinese Hamster Ovary cells (hERG-CHO), stably transfected
Description: as §1, §2, §3, §4, §5, §6, §7

J774 macrophages [5] = assay: Resazurin Macrophage J774 Viability Assay; assay type: cell-based; settings: Mus musculus, 6 point concentration range 10 μM to 10 nM, n = 3 replicates, mean of 2 independent experiments, 72 hour incubation, read-out: IC50 (1)
Description: Potency was assessed using a viability assay based on the survival of the J774 macrophage cell line. Macrophages are closely related to osteoclasts and have been used previously as a model system for osteoclast survival (see, e.g., Luckman et al., 1998, “Heterocycle-containing bisphosphonates cause apoptosis and inhibit bone resorption by preventing protein prenylation: evidence from structure-activity relationships in J774 macrophages,” J. Bone Miner. Res., Vol. 13, pp. 1668-1678). The model is indicative both of effects on bone protection in diseases such as osteoporosis, osteoarthritis and rheumatoid arthritis, and of effects on inflammation since, like osteoclasts, J774 macrophages are dependent for survival on continued NFκB activation.
In vitro potency of test compounds was determined by incubation with J774 macrophages and subsequent determination of cell viability using resazurin.
Resazurin is a redox dye commonly used as an indicator of viability in cultured cells (see, e.g., Anoopkumar-Dukie, 2005, British Journal of Radiology, Vol. 78, pp. 945-947). It is non-toxic to cells and stable in culture medium, allowing continuous measurement of cell proliferation in vitro as either a kinetic or endpoint assay. The assay is based on the ability of viable, metabolically-active cells to reduce resazurin (which is blue and non-fluorescent) to resorufin and dihydroresorufin (which are red and fluorescent) using electrons from reducing species, such as nicotinamide adenine dinucleotide (NADPH) and flavin adenine dinucleotide (FADH). This transformation, from oxidised form to reduced form, can be measured either colorimetrically or fluorometrically. Insults that impair cell viability and proliferation also affects the capacity of cells to reduce resazurin, and the rate of dye reduction is directly proportional to the number of viable cells present.
For fluorescence measurements, 530-560 nm excitation and 590 nm emission wavelengths are typically used. For colorimetric measurements, absorbance at 570 nm (reduced form) and 600 nm (oxidised form) is typically measured. A simple calculation is performed to determine the relative quantities of the two species: a high ratio of resorufin (the reduced form) to resazurin (the oxidised form) is an indicator that cells are proliferating and viable. A low ratio indicates cells that are quiescent or non-viable.
J774 cells were plated at 10^4 cells per well in 100 μL αMEM (α Modified Eagle Medium) in 96-well plates and allowed to adhere overnight. The following day, test compounds were prepared as 100 mM solutions in DMSO. These stock solutions were diluted in DMSO and then diluted 1000× in culture medium (αMEM) before being added directly to the wells so as to give the desired final compound concentration. After a 72 hour incubation at 37° C./5% CO2, resazurin (Alamar Blue, Biosource International) was added to each well (1:10 v/v, 10 μL). The plate was then incubated at 37° C. for 3 hours and fluorescence was measured at 590 nm, with a 25 nm bandwidth.
The average results for each test compound were expressed as a percent (%) of the average control value reflecting cell viability. The average values across the concentrations tested were then plotted and the IC50 for was calculated by fitting the data to a 4-parameter IC50 equation using software from Grafit (Erithacus Software). Each experiment was repeated twice and the data are presented as the mean IC50 from both experiments.

T1 sequence (Q12809 whole entry): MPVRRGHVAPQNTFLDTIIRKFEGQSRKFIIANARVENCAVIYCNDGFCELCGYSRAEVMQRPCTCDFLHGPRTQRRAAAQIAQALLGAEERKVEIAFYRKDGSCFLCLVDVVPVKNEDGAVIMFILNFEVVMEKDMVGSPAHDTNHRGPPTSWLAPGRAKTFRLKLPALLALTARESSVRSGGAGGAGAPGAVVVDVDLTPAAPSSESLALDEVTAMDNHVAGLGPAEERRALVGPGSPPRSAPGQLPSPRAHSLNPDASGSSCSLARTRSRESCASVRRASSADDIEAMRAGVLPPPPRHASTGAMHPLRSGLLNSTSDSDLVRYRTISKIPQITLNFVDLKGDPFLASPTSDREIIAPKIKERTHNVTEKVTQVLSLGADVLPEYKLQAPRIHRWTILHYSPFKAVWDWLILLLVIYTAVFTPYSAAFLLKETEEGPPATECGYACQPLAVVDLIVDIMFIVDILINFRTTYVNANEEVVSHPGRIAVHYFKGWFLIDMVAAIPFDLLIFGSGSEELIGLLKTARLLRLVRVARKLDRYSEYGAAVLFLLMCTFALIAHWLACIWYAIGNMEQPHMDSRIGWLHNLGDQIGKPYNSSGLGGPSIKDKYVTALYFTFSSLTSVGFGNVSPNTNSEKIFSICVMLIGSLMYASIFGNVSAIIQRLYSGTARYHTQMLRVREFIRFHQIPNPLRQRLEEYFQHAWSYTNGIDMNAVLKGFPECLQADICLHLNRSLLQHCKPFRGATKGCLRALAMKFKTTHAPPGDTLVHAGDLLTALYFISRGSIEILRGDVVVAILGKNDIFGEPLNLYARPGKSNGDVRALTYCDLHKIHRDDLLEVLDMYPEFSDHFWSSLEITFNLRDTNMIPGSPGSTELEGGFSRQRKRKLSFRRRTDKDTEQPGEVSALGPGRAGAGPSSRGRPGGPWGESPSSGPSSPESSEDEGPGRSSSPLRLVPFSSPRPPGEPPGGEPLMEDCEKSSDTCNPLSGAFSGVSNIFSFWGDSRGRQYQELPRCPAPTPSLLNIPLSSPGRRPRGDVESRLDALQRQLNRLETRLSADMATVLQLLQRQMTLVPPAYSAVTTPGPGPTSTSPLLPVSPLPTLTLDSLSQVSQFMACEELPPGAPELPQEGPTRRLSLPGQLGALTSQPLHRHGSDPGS
T2 sequence (Q12809 whole entry): as above

SMILES	pIC50 (J774 macrophages [1])	pIC50 [2]	solubility [3]	half-life at 1 μM [4]	inhibition at 5 min, 30 µM (hERG)	solubility at 16 h ([3]; kinetic from dmso stock, pH 6.5, three replicates, 16 hours, read-out: Solubility (1))	pIC50 (hERG ion channel)	pIC50 (J774 macrophages [5])
C[C@]1(O)CC[C@H](NS(=O)(=O)c2ccc(-c3ccc(F)cc3C#N)cc2)CC1 [HMC-C-05-A, 2′-Cyano-4′-fluoro-N-((1r,4r)-4-hydroxy-4-methylcyclohexyl)-[1,1′-biphenyl]-4-sulfonamide]	5.61	5.99	190 µg/mL (≈ 489 µM)	2.05 h	–	–	–	–
C[C@]1(O)CC[C@H](NS(=O)(=O)c2ccc(-c3ccc(C#N)cc3F)cc2)CC1 [HMC-C-06-A, 4′-Cyano-2′-fluoro-N-((1r,4r)-4-hydroxy-4-methylcyclohexyl)-[1,1′-biphenyl]-4-sulfonamide]	6.15	6.72	110 µg/mL (≈ 283 µM)	4 h	–	–	–	–
C[C@]1(O)CC[C@@H](NS(=O)(=O)c2ccc(-c3ncc(Cl)cc3Cl)c(F)c2)CC1 [HMC-N-04-B]	–	–	–	–	60%	–	–	–
O=S(=O)(N[C@H]1CC[C@H](O)CC1)c1ccc(-c2ccc(F)cc2F)cc1 [ABD599, reference compound]	–	–	–	–	85%	30 µg/mL (≈ 81.7 µM)	5.31	6.72
